In ChEMBL document CHEMBL3217526, “Bioguided discovery and pharmacophore modeling of the mycotoxic indole diterpene alkaloids penitrems as breast cancer proliferation, migration, and invasion inhibitors” (Medchemcomm, 2013):

Assays:
[1] = tested on: Caenorhabditis elegans; test: Toxicity in L1 stage Caenorhabditis elegans N2 assessed as viability and reproduction at 10 uM; type: organism-based; conditions: in vivo
[2] = tested on: Caenorhabditis elegans; test: Toxicity in L1 stage Caenorhabditis elegans N2 assessed as viability and reproduction at 50 uM; type: organism-based; conditions: in vivo
[3] = tested on: Caenorhabditis elegans; test: In vivo inhibition of BK channel in L1 stage Caenorhabditis elegans N2 assessed as increase in reversals at 1 uM; type: organism-based
[4] = Cytotoxicity against human EKVX cells assessed as growth inhibition at 10 uM; type: functional; conditions: read-out: GI
[5] = tested on: SNB-19; test: Cytotoxicity against human SNB19 cells assessed as growth inhibition at 10 uM; type: functional; conditions: read-out: GI
[6] = tested on: ACHN; test: Cytotoxicity against human ACHN cells assessed as growth inhibition at 10 uM; type: functional; conditions: read-out: GI
[7] = tested on: SK-MEL-28; test: Cytotoxicity against human SK-MEL-28 cells assessed as growth inhibition at 10 uM; type: functional; conditions: read-out: GI
[8] = tested on: HL-60(TB); test: Cytotoxicity against human HL-60(TB) cells assessed as growth inhibition at 10 uM; type: functional; conditions: read-out: GI
[9] = tested on: RXF 393; test: Cytotoxicity against human RXF393 cells assessed as growth inhibition at 10 uM; type: functional; conditions: read-out: GI
[10] = tested on: SN12C; test: Cytotoxicity against human SN12C cells assessed as growth inhibition at 10 uM; type: functional; conditions: read-out: GI
[11] = tested on: HT-29; test: Cytotoxicity against human HT-29 cells assessed as growth inhibition at 10 uM; type: functional; conditions: read-out: GI
[12] = tested on: U-251; test: Cytotoxicity against human U251 cells assessed as growth inhibition at 10 uM; type: functional; conditions: read-out: GI
[13] = Cytotoxicity against human NCI-ADR-RES cells assessed as growth inhibition at 10 uM; type: functional; conditions: read-out: GI
[14] = tested on: SK-MEL-2; test: Cytotoxicity against human SK-MEL-2 cells assessed as growth inhibition at 10 uM; type: functional; conditions: read-out: GI
[15] = tested on: MDA-MB-231; test: Antiinvasive activity against human MDA-MB-231 cells assessed as inhibition of cell invasion at 15 uM after 24 hrs by BME Cell invasion assay kit; type: functional; conditions: MDA-MB-231, 24 h
[16] = tested on: A549; test: Cytotoxicity against human A549 cells assessed as growth inhibition at 10 uM; type: functional; conditions: read-out: GI
[17] = tested on: CCRF-CEM; test: Cytotoxicity against human CCRF-CEM cells assessed as growth inhibition at 10 uM; type: functional; conditions: read-out: GI
[18] = tested on: PC-3; test: Cytotoxicity against human PC3 cells assessed as growth inhibition at 10 uM; type: functional; conditions: read-out: GI
[19] = tested on: KM12; test: Cytotoxicity against human KM12 cells assessed as growth inhibition at 10 uM; type: functional; conditions: read-out: GI
[20] = tested on: MDA-MB-468; test: Cytotoxicity against human MDA-MB-468 cells assessed as growth inhibition at 10 uM; type: functional; conditions: read-out: GI
[21] = tested on: HOP-62; test: Cytotoxicity against human HOP62 cells assessed as growth inhibition at 10 uM; type: functional; conditions: read-out: GI
[22] = tested on: T47D; test: Cytotoxicity against human T47D cells assessed as growth inhibition at 10 uM; type: functional; conditions: read-out: GI
[23] = tested on: NCI-H460; test: Cytotoxicity against human NCI-H460 cells assessed as growth inhibition at 10 uM; type: functional; conditions: read-out: GI
[24] = tested on: K562; test: Cytotoxicity against human K562 cells assessed as growth inhibition at 10 uM; type: functional; conditions: read-out: GI
[25] = tested on: IGROV-1; test: Cytotoxicity against human IGROV1 cells assessed as growth inhibition at 10 uM; type: functional; conditions: read-out: GI
[26] = tested on: SW-620; test: Cytotoxicity against human SW620 cells assessed as growth inhibition at 10 uM; type: functional; conditions: read-out: GI
[27] = tested on: NCI-H322M; test: Cytotoxicity against human NCI-H322M cells assessed as growth inhibition at 10 uM; type: functional; conditions: read-out: GI
[28] = tested on: NCI-H522; test: Cytotoxicity against human NCI-H522 cells assessed as growth inhibition at 10 uM; type: functional; conditions: read-out: GI
[29] = tested on: HCT-116; test: Cytotoxicity against human HCT116 cells assessed as growth inhibition at 10 uM; type: functional; conditions: read-out: GI
[30] = tested on: MDA-MB-435; test: Cytotoxicity against human MDA-MB-435 cells assessed as growth inhibition at 10 uM; type: functional; conditions: read-out: GI
[31] = tested on: SNB-75; test: Cytotoxicity against human SNB75 cells assessed as growth inhibition at 10 uM; type: functional; conditions: read-out: GI
[32] = Cytotoxicity against human UACC62 cells assessed as growth inhibition at 10 uM; type: functional; conditions: UACC-62, read-out: GI
[33] = tested on: SF-539; test: Cytotoxicity against human SF539 cells assessed as growth inhibition at 10 uM; type: functional; conditions: read-out: GI
[34] = tested on: SK-OV-3; test: Cytotoxicity against human SKOV3 cells assessed as growth inhibition at 10 uM; type: functional; conditions: read-out: GI
[35] = tested on: SF-268; test: Cytotoxicity against human SF268 cells assessed as growth inhibition at 10 uM; type: functional; conditions: read-out: GI
[36] = tested on: SK-MEL-5; test: Cytotoxicity against human SK-MEL-5 cells assessed as growth inhibition at 10 uM; type: functional; conditions: read-out: GI
[37] = tested on: COLO 205; test: Cytotoxicity against human COLO205 cells assessed as growth inhibition at 10 uM; type: functional; conditions: read-out: GI
[38] = Cytotoxicity against human UACC257 cells assessed as growth inhibition at 10 uM; type: functional; conditions: UACC-257, read-out: GI
[39] = tested on: M14; test: Cytotoxicity against human M14 cells assessed as growth inhibition at 10 uM; type: functional; conditions: read-out: GI
[40] = tested on: MDA-MB-231; test: Antimigratory activity in human MDA-MB-231 cells after 24 hrs by wound healing assay; type: functional, cell-based; conditions: MDA-MB-231, 24 h
[41] = tested on: NCI-H226; test: Cytotoxicity against human NCI-H226 cells assessed as growth inhibition at 10 uM; type: functional; conditions: read-out: GI
[42] = tested on: DU-145; test: Cytotoxicity against human DU145 cells assessed as growth inhibition at 10 uM; type: functional; conditions: read-out: GI
[43] = tested on: RPMI-8226; test: Cytotoxicity against human RPMI8226 cells assessed as growth inhibition at 10 uM; type: functional; conditions: read-out: GI
[44] = tested on: LOX IMVI; test: Cytotoxicity against human LOXIMVI cells assessed as growth inhibition at 10 uM; type: functional; conditions: read-out: GI
[45] = Cytotoxicity against human OVCAR5 cells assessed as growth inhibition at 10 uM; type: functional; conditions: OVCAR-5, read-out: GI
[46] = tested on: NCI-H23; test: Cytotoxicity against human NCI-H23 cells assessed as growth inhibition at 10 uM; type: functional; conditions: read-out: GI
[47] = tested on: Malme-3M; test: Cytotoxicity against human MALME-3M cells assessed as growth inhibition at 10 uM; type: functional; conditions: read-out: GI
[48] = tested on: HCC 2998; test: Cytotoxicity against human HCC2998 cells assessed as growth inhibition at 10 uM; type: functional; conditions: read-out: GI
[49] = tested on: MOLT-4; test: Cytotoxicity against human MOLT4 cells assessed as growth inhibition at 10 uM; type: functional; conditions: read-out: GI
[50] = tested on: 786-0; test: Cytotoxicity against human 786-0 cells assessed as growth inhibition at 10 uM; type: functional; conditions: read-out: GI
[51] = tested on: MDA-MB-231; test: Cytotoxicity against human MDA-MB-231 cells assessed as growth inhibition at 10 uM; type: functional; conditions: read-out: GI
[52] = tested on: SR; test: Cytotoxicity against human SR cells assessed as growth inhibition at 10 uM; type: functional; conditions: read-out: GI
[53] = Cytotoxicity against human OVCAR4 cells assessed as growth inhibition at 10 uM; type: functional; conditions: OVCAR-4, read-out: GI
[54] = tested on: BT-549; test: Cytotoxicity against human BT549 cells assessed as growth inhibition at 10 uM; type: functional; conditions: read-out: GI
[55] = tested on: MCF7; test: Antiproliferative activity against human MCF7 cells after 72 hrs by MTT assay; type: functional, cell-based; conditions: MCF7, 72 h
[56] = tested on: TK-10; test: Cytotoxicity against human TK10 cells assessed as growth inhibition at 10 uM; type: functional; conditions: read-out: GI
[57] = Cytotoxicity against human OVCAR3 cells assessed as growth inhibition at 10 uM; type: functional; conditions: OVCAR-3, read-out: GI
[58] = Cytotoxicity against human HCT15 cells assessed as growth inhibition at 10 uM; type: functional; conditions: HCT-15, read-out: GI
[59] = Cytotoxicity against human UO31 cells assessed as growth inhibition at 10 uM; type: functional; conditions: UO-31, read-out: GI
[60] = Cytotoxicity against human OVCAR8 cells assessed as growth inhibition at 10 uM; type: functional; conditions: OVCAR-8, read-out: GI
[61] = Cytotoxicity against human Hs578T cells assessed as growth inhibition at 10 uM; type: functional; conditions: Hs-578T, read-out: GI
[62] = tested on: MDA-MB-231; test: Antiproliferative activity against human MDA-MB-231 cells after 72 hrs by MTT assay; type: functional, cell-based; conditions: MDA-MB-231, 72 h

## C=C(C)[C@H]1O[C@H]2CC[C@@]3(C)[C@@](O)(CC[C@H]4[C@@H]5OC(C)(C)[C@H]6C[C@@H]7C(=C)Cc8c(Cl)cc9[nH]c(c5c9c8[C@@]76O)[C@@]43C)[C@]23O[C@@H]3[C@H]1O [PENITREM A]
[1]
  Activity: Non-toxic
[2]
  Activity: Non-toxic
[3]
  Activity: Toxic

## C=C1Cc2ccc3[nH]c4c5c3c2[C@H]2[C@@H]1C[C@@H]2C(C)(C)O[C@H]5[C@@H]1CC[C@@]2(O)[C@@]35O[C@@H]3[C@@H](O)[C@@H](C(=C)C)O[C@H]5CC[C@]2(C)[C@@]41C [PENITREM B]
[4]
  inhibition of growth at 10 µM: 63%
[5]
  inhibition of growth at 10 µM: 71.8%
[6]
  inhibition of growth at 10 µM: 59.3%
[7]
  inhibition of growth at 10 µM: 94.1%
[8]
  inhibition of growth at 10 µM: 29%
[9]
  inhibition of growth at 10 µM: 70.3%
[10]
  inhibition of growth at 10 µM: 38.6%
[11]
  inhibition of growth at 10 µM: 38.4%
[12]
  inhibition of growth at 10 µM: 66.3%
[13]
  inhibition of growth at 10 µM: 56.7%
[14]
  inhibition of growth at 10 µM: 87.8%
[15]
  inhibition at 15 µM: 40%
[16]
  inhibition of growth at 10 µM: 43.1%
[17]
  inhibition of growth at 10 µM: 21.3%
[18]
  inhibition of growth at 10 µM: 27.8%
[19]
  inhibition of growth at 10 µM: 40.9%
[20]
  inhibition of growth at 10 µM: 60.7%
[1]
  Activity: Non-toxic
[21]
  inhibition of growth at 10 µM: 94%
[22]
  inhibition of growth at 10 µM: 64.5%
[23]
  inhibition of growth at 10 µM: 50.6%
[24]
  inhibition of growth at 10 µM: 19.9%
[25]
  inhibition of growth at 10 µM: 54.9%
[26]
  inhibition of growth at 10 µM: 64.1%
[27]
  inhibition of growth at 10 µM: 48.2%
[28]
  inhibition of growth at 10 µM: 78.5%
[29]
  inhibition of growth at 10 µM: 25.3%
[30]
  inhibition of growth at 10 µM: 33.9%
[31]
  inhibition of growth at 10 µM: 68.2%
[32]
  inhibition of growth at 10 µM: 76.8%
[33]
  inhibition of growth at 10 µM: 89.8%
[34]
  inhibition of growth at 10 µM: 90.3%
[35]
  inhibition of growth at 10 µM: 49.2%
[36]
  inhibition of growth at 10 µM: 61.1%
[37]
  inhibition of growth at 10 µM: 76.5%
[38]
  inhibition of growth at 10 µM: 44.7%
[39]
  inhibition of growth at 10 µM: 34.5%
[40]
  IC50: 10.3 µM
[41]
  inhibition of growth at 10 µM: 82.3%
[42]
  inhibition of growth at 10 µM: 64.4%
[43]
  inhibition of growth at 10 µM: 20.4%
[44]
  inhibition of growth at 10 µM: 39.5%
[45]
  inhibition of growth at 10 µM: 102%
[46]
  inhibition of growth at 10 µM: 73.2%
[47]
  inhibition of growth at 10 µM: 67.4%
[48]
  inhibition of growth at 10 µM: 107%
[49]
  inhibition of growth at 10 µM: 36.4%
[50]
  inhibition of growth at 10 µM: 70.3%
[51]
  inhibition of growth at 10 µM: 77.8%
[2]
  Activity: Non-toxic
[52]
  inhibition of growth at 10 µM: 45.9%
[53]
  inhibition of growth at 10 µM: 66.3%
[54]
  inhibition of growth at 10 µM: 63.7%
[55]
  IC50: 5.5 µM
[56]
  inhibition of growth at 10 µM: 84%
[57]
  inhibition of growth at 10 µM: 48.8%
[58]
  inhibition of growth at 10 µM: 74.3%
[59]
  inhibition of growth at 10 µM: 11.5%
[60]
  inhibition of growth at 10 µM: 71.4%
[61]
  inhibition of growth at 10 µM: 42.4%
[62]
  IC50: 13.7 µM
